Test results as given in patent US7220414B2, “Degradable polyacetal polymers” (A.P. Pharma, Inc., priority 2000, dated 2007).

Test system: red blood cell
Assay: red blood cell (RBC) lysis assay
Excerpt: The degradation products were obtained by dissolving polyacetal 22 in phosphate buffered saline (PBS), adjusting the pH to 1–2 by the addition of HCl to allow the polyacetal to degrade, then adding a small amount of NaOH to readjust the pH to 7.4.

Q: For Dextran, which “red blood cell (RBC) lysis” value is on record?
A: did not display RBC lysis
